Measured values from patent publication US20250197409A1, “BIFUNCTIONAL COMPOUND AND PHARMACEUTICAL COMPOSITION COMPRISING THE BIFUNCTIONAL COMPOUND, AND METHOD FOR TREATING ANDROGEN RECEPTOR RELATED DISEASE BY USING THE SAME” (ANHORN MEDICINES CO., LTD., priority 2022, published 2025).
Where two headings read alike, the source gives them in different places.

Biological target: T1, androgen receptor (Homo sapiens, UniProt P10275, T878A)
T1 construct: host or cells: LNCaP.FGC
Experiment: Androgen receptor degradation assay using Western blot analysis
Format: cell-based
Summary of the method: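 LNCaP.FGC cells (2×10^5/well) treated with 10-fold serial dilutions in RPMI from 100 nM stock; untreated cells as negative control. AR Western signal normalized to GAPDH, expressed as % remaining versus untreated (100%). DC50 derived from calibration curve of serial dilutions.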

[1] = 24 h, read-out: Androgen Receptor Remaining (%), LNCaP.FGC cells, 100 nM, 24 hr, normalized to GAPDH, untreated cells = 100%
[2] = 24 h, LNCaP.FGC cells, 100 nM, 24 hr, normalized to GAPDH, untreated cells = 100%; read-out: Androgen Receptor Remaining (%)
[3] = LNCaP.FGC cells, serial 10x dilutions from 100 nM; read-out: AR DC50 (concentration needed for 50% AR degradation)
[4] = LNCaP.FGC cells, 100 nM, 24 hr, normalized to GAPDH, untreated cells = 100%
[5] = read-out: AR DC50 (concentration needed for 50% AR degradation); LNCaP.FGC cells, serial 10x dilutions from 100 nM

T1 sequence (P10275 whole entry T878A): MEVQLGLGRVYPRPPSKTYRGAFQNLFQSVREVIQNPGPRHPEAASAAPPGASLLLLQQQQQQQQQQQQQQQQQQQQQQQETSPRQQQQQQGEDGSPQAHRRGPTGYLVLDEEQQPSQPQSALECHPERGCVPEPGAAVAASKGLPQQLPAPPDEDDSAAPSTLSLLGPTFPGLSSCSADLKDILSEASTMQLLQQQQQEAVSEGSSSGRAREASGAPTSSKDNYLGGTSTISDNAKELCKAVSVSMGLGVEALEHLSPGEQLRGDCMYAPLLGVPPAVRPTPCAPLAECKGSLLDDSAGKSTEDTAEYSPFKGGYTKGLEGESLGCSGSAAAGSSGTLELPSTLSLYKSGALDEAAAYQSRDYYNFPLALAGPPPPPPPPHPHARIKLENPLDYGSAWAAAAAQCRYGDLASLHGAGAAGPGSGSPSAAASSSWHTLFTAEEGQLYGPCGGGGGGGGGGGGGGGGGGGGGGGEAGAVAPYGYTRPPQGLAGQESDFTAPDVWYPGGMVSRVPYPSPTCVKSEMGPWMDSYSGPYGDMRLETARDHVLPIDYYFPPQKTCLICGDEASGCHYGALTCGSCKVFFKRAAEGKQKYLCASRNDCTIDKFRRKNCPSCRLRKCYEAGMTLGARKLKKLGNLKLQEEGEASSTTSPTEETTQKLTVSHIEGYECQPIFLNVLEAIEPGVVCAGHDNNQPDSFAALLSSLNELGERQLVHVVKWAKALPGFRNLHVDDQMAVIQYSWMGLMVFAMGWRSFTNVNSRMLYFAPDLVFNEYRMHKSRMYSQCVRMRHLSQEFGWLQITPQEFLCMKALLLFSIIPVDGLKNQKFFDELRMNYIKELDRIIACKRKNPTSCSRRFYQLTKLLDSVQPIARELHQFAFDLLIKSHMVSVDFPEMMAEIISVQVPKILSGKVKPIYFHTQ
T1 sequence (Q96SW2 whole entry partner): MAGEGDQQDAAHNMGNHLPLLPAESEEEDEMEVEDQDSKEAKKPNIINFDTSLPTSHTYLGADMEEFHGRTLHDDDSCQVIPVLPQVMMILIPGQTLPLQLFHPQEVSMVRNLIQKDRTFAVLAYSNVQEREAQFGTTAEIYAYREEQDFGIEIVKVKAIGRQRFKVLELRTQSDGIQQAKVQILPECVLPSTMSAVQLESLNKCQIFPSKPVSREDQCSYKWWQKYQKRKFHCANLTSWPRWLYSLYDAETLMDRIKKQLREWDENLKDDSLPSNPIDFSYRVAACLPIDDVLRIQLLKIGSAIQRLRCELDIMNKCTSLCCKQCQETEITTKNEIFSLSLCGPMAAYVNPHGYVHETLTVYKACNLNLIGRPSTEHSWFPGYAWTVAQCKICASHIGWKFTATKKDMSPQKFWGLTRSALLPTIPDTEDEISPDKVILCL

Row | Structure (SMILES) | remaining activity at 0.1 µM [1] | DC50 [5] | also measured
1 | CCn1c2c(c3ccc(OCC(=O)N4CCC5(CC4)CN(c4ccc(C(=O)N[C@H]6CC[C@H](N(C)c7ccc(C#N)c(Cl)c7)CC6)nn4)C5)cc31)C(=O)N(C1CCC(=O)NC1=O)C2=O (stereo partly shown) [Compound 129] | 63% | – | –
2 | CCn1c2c(c3ccc(OCCCN4CCCN(c5ccc(C(=O)N[C@H]6C(C)(C)[C@H](Oc7ccc(C#N)c(Cl)c7)C6(C)C)nn5)CC4)cc31)C(=O)N(C1CCC(=O)NC1=O)C2=O (stereo partly shown) [Compound 54] | 72% | – | –
3 | Cn1c2c(c3ccc(OCCN4CCC5(CC4)CN(c4ccc(C(=O)N[C@H]6CC[C@H](Oc7ccc(C#N)c(Cl)c7)CC6)nn4)C5)cc31)C(=O)N(C1CCC(=O)NC1=O)C2=O (stereo partly shown) [Compound 88] | – | – | remaining activity at 0.1 µM [2]: 10%; DC50 [3]: 10 to 25 nM
4 | CCn1c2c(c3ccc(OCCC4CCN(c5ccc(C(=O)N[C@H]6CC[C@H](Oc7ccc(C#N)c(Cl)c7)CC6)nn5)CC4)cc31)C(=O)N(C1CCC(=O)NC1=O)C2=O (stereo partly shown) [Compound 2] | 56% | – | –
5 | CCn1c2c(c3ccc(OCCCN4CC5(CCN(c6ccc(C(=O)N[C@H]7CC[C@H](Oc8ccc(C#N)c(Cl)c8)CC7)nn6)CC5)C4)cc31)C(=O)N(C1CCC(=O)NC1=O)C2=O (stereo partly shown) [Compound 72] | – | < 10 nM | Androgen Receptor Remaining (%) [4]: 26%
6 | CC1(C)[C@H](NC(=O)c2ccc(N3CCN(CCOc4ccc5c6c(sc5c4)C(=O)N(C4CCC(=O)NC4=O)C6=O)CC3)cn2)C(C)(C)[C@H]1Oc1ccc(C#N)c(Cl)c1 (stereo partly shown) [Compound 18] | – | – | Androgen Receptor Remaining (%) [4]: 99%
7 | CCn1c2c(c3ccc(OCCN4C5CCC4CN(c4ccc(C(=O)N[C@H]6CC[C@H](Oc7ccc(C#N)c(Cl)c7)CC6)nn4)C5)cc31)C(=O)N(C1CCC(=O)NC1=O)C2=O (stereo partly shown) [Compound 64] | 40% | 25 to 100 nM | –
8 | Cn1c2c(c3ccc(OCCCN4CCC5(CC4)CN(c4ccc(C(=O)N[C@H]6CC[C@H](Oc7ccc(C#N)c(Cl)c7)CC6)nn4)C5)cc31)C(=O)N(C1CCC(=O)NC1=O)C2=O (stereo partly shown) [Compound 92] | – | – | remaining activity at 0.1 µM [2]: 6%; DC50 [3]: 25 to 100 nM
9 | CCn1c2c(c3ccc(OCCCC4CCN(c5ccc(C(=O)N[C@H]6CC[C@H](N(C)c7ccc(C#N)c(Cl)c7)CC6)nn5)CC4)cc31)C(=O)N(C1CCC(=O)NC1=O)C2=O (stereo partly shown) [Compound 165] | 77% | – | –
10 | Cn1c2c(c3ccc(OCCN4CCN(c5ccc(C(=O)N[C@H]6C(C)(C)[C@H](Oc7ccc(C#N)c(Cl)c7)C6(C)C)cn5)CC4)cc31)C(=O)N(C1CCC(=O)NC1=O)C2=O (stereo partly shown) [Compound 6] | – | – | remaining activity at 0.1 µM [2]: 31%; DC50 [3]: 25 to 100 nM
11 | Cn1c2c(c3ccc(OC4CCN(CC5CCN(c6ccc(C(=O)N[C@H]7C(C)(C)[C@H](Oc8ccc(C#N)c(Cl)c8)C7(C)C)cc6)CC5)CC4)cc31)C(=O)N(C1CCC(=O)NC1=O)C2=O (stereo partly shown) [Compound 219] | – | – | DC50 [3]: 25 to 100 nM
12 | CCn1c2c(c3ccc(OC4CCN(CC5CCN(c6ccc(C(=O)N[C@H]7C(C)(C)[C@@H](Oc8ccc(C#N)c(Cl)c8)C7(C)C)nn6)CC5)CC4)cc31)C(=O)N(C1CCC(=O)NC1=O)C2=O (stereo partly shown) [Compound 213] | – | 10 to 25 nM | –
13 | CCn1c2c(c3ccc(OCCCN4CCN(c5ccc(C(=O)N[C@H]6CC[C@H](Oc7ccc(C#N)c(Cl)c7)CC6)cc5)CC4)cc31)C(=O)N(C1CCC(=O)NC1=O)C2=O (stereo partly shown) [Compound 27] | 107% | – | –
14 | N#Cc1ccc(O[C@H]2CC[C@H](NC(=O)c3ccc(N4CCN(CCCOc5ccc6c7c(n(CC(F)F)c6c5)C(=O)N(C5CCC(=O)NC5=O)C7=O)CC4)nn3)CC2)cc1Cl (stereo partly shown) [Compound 82] | 35% | 25 to 100 nM | –
15 | Cn1c2c(c3ccc(OC4CCN(CC5CCN(c6ccc(C(=O)N[C@H]7CC[C@@H](Oc8ccc(C#N)c(Cl)c8)CC7)nn6)CC5)CC4)cc31)C(=O)N(C1CCC(=O)NC1=O)C2=O (stereo partly shown) [Compound 216] | – | – | DC50 [3]: < 10 nM
16 | Cn1c2c(c3cc(OCCN4CCN(c5ccc(C(=O)N[C@H]6C(C)(C)[C@H](Oc7ccc(C#N)c(Cl)c7)C6(C)C)nc5)CC4)ccc31)C(=O)N(C1CCC(=O)NC1=O)C2=O (stereo partly shown) [Compound 10] | – | – | remaining activity at 0.1 µM [2]: 37%; DC50 [3]: 25 to 100 nM
17 | CCn1c2c(c3ccc(OCCN4[C@H](C)CN(c5ccc(C(=O)N[C@H]6CC[C@H](Oc7ccc(C#N)c(Cl)c7)CC6)nn5)C[C@@H]4C)cc31)C(=O)N(C1CCC(=O)NC1=O)C2=O (stereo partly shown) [Compound 77] | 92% | – | –
18 | CCn1c2c(c3ccc(OCC(=O)N4CCN(c5ccc(C(=O)N[C@H]6CC[C@H](N(C)c7ccc(C#N)c(Cl)c7)CC6)nn5)CC4)cc31)C(=O)N(C1CCC(=O)NC1=O)C2=O (stereo partly shown) [Compound 125] | 57% | – | –
19 | Cn1c2c(c3ccc(OCCOC4CC5(CCN(c6ccc(C(=O)N[C@H]7CC[C@H](Oc8ccc(C#N)c(Cl)c8)CC7)nn6)CC5)C4)cc31)C(=O)N(C1CCC(=O)NC1=O)C2=O (stereo partly shown) [Compound 170] | – | – | DC50 [3]: 25 to 100 nM
20 | Cn1c2c(c3ccc(OCCN4CCCN(c5ccc(C(=O)N[C@H]6CC[C@H](Oc7ccc(C#N)c(Cl)c7)CC6)nn5)CC4)cc31)C(=O)N(C1CCC(=O)NC1=O)C2=O (stereo partly shown) [Compound 75] | – | – | remaining activity at 0.1 µM [2]: 26%; DC50 [3]: 10 to 25 nM

Row | Structure (SMILES) | remaining activity at 0.1 µM [1] | DC50 [5] | also measured
21 | N#Cc1ccc(O[C@H]2CC[C@H](NC(=O)c3ccc(N4CCN(CCCOc5ccc6c7c(n(CO)c6c5)C(=O)N(C5CCC(=O)NC5=O)C7=O)CC4)nn3)CC2)cc1Cl (stereo partly shown) [Compound 85] | 20% | 25 to 100 nM | –
22 | CCn1c2c(c3ccc(OCCN4CCN(c5ccc(C(=O)N[C@H]6CC[C@H](Oc7ccc(C#N)c(Cl)c7)CC6)nn5)[C@@H](C)C4)cc31)C(=O)N(C1CCC(=O)NC1=O)C2=O (stereo partly shown) [Compound 57] | 53% | – | –
23 | CCn1c2c(c3ccc(OCCN4CCCN(c5ccc(C(=O)N[C@H]6CC[C@H](Oc7ccc(C#N)c(Cl)c7)CC6)nn5)CC4)cc31)C(=O)N(C1CCC(=O)NC1=O)C2=O (stereo partly shown) [Compound 52] | 42% | 10 to 25 nM | –
24 | CCn1c2c(c3ccc(OCCCN4CCN(c5cnc(C(=O)N[C@H]6CC[C@H](Oc7ccc(C#N)c(Cl)c7)CC6)cn5)CC4)cc31)C(=O)N(C1CCC(=O)NC1=O)C2=O (stereo partly shown) [Compound 61] | 96% | – | –
25 | CCn1c2c(c3ccc(OCC(=O)N4CCN(c5ccc(C(=O)N[C@H]6CC[C@H](N(C)c7ccc(C#N)c(Cl)c7)CC6)nn5)CC4)cc31)C(=O)N(C1CCC(=O)N(CO)C1=O)C2=O (stereo partly shown) [Compound 124] | 57% | – | –
26 | Cn1c2c(c3ccc(OCCN4CC=C(c5ccc(C(=O)N[C@H]6CC[C@H](Oc7ccc(C#N)c(Cl)c7)CC6)nn5)CC4)cc31)C(=O)N(C1CCC(=O)NC1=O)C2=O (stereo partly shown) [Compound 197] | – | – | DC50 [3]: 10 to 25 nM
27 | CN(c1ccc(C#N)c(Cl)c1)[C@H]1CC[C@H](NC(=O)c2ccc(N3CCN(CCOc4ccc5c6c(n(CC(F)F)c5c4)C(=O)N(C4CCC(=O)NC4=O)C6=O)CC3)nn2)CC1 (stereo partly shown) [Compound 104] | 42% | 25 to 100 nM | –
28 | CCn1c2c(c3ccc(OCCN4CCN(c5ccc(C(=O)N[C@H]6CC[C@H](Oc7ccc(C#N)c(Cl)c7)CC6)nn5)C[C@H]4C)cc31)C(=O)N(C1CCC(=O)NC1=O)C2=O (stereo partly shown) [Compound 73] | 41% | 25 to 100 nM | –
29 | CCn1c2c(c3ccc(OCCCN4CCN(c5ccc(C(=O)N[C@H]6CC[C@H](Oc7ccc(C#N)c(Cl)c7)CC6)cn5)CC4)cc31)C(=O)N(C1CCC(=O)NC1=O)C2=O (stereo partly shown) [Compound 26] | 75% | – | –
30 | Cn1c2c(c3ccc(OCCOC4CC5(CCN(c6ccc(C(=O)N[C@H]7CC[C@H](N(C)c8ccc(C#N)c(Cl)c8)CC7)nn6)CC5)C4)cc31)C(=O)N(C1CCC(=O)NC1=O)C2=O (stereo partly shown) [Compound 171] | – | 25 to 100 nM | –
31 | Cn1c2c(c3ccc(OCCCN4CCN(c5ccc(C(=O)N[C@H]6C(C)(C)[C@H](Oc7ccc(C#N)c(Cl)c7)C6(C)C)nn5)CC4)cc31)C(=O)N(C1CCC(=O)NC1=O)C2=O (stereo partly shown) [Compound 40] | – | – | remaining activity at 0.1 µM [2]: 29%; DC50 [3]: > 100 nM
32 | CCn1c2c(c3ccc(OC4CCN(CC5CCN(c6ccc(C(=O)N[C@H]7CC[C@@H](Oc8ccc(C#N)c(Cl)c8)CC7)nn6)CC5)CC4)cc31)C(=O)N(C1CCC(=O)NC1=O)C2=O (stereo partly shown) [Compound 204] | – | 10 to 25 nM | –
33 | Cn1c2c(c3ccc(OCCCN4CCC(c5ncc(C(=O)N[C@H]6CC[C@H](Oc7ccc(C#N)c(Cl)c7)CC6)cn5)CC4)cc31)C(=O)N(C1CCC(=O)NC1=O)C2=O (stereo partly shown) [Compound 44] | – | – | DC50 [3]: 25 to 100 nM
34 | CCn1c2c(c3ccc(OCCCN4CCC5(CC4)CN(c4ccc(C(=O)N[C@H]6C(C)(C)[C@H](Oc7ccc(C#N)c(Cl)c7)C6(C)C)nn4)C5)cc31)C(=O)N(C1CCC(=O)NC1=O)C2=O (stereo partly shown) [Compound 49] | 36% | 25 to 100 nM | –
35 | CCn1c2c(c3ccc(OCCOC4CCC5(CC4)CN(c4ccc(C(=O)N[C@H]6CC[C@H](Oc7ccc(C#N)c(Cl)c7)CC6)nn4)C5)cc31)C(=O)N(C1CCC(=O)NC1=O)C2=O (stereo partly shown) [Compound 152] | 45% | 25 to 100 nM | –
36 | CCn1c2c(c3ccc(OCCCN4CCN(c5ccc(C(=O)N[C@H]6CC[C@H](Oc7ccc(C#N)c(Cl)c7)CC6)nn5)C[C@H]4C)cc31)C(=O)N(C1CCC(=O)NC1=O)C2=O (stereo partly shown) [Compound 74] | 40% | 25 to 100 nM | –
37 | CCn1c2c(c3ccc(OCCCN4CCC(C5CCN(c6ccc(C(=O)N[C@H]7CC[C@H](N(C)c8ccc(C#N)c(Cl)c8)CC7)nn6)CC5)CC4)cc31)C(=O)N(C1CCC(=O)NC1=O)C2=O (stereo partly shown) [Compound 167] | 78% | – | –
38 | CN(c1ccc(C#N)c(Cl)c1)[C@H]1CC[C@H](NC(=O)c2ccc(N3CC4(CCN(CCOc5ccc6c7c(n(CC(F)F)c6c5)C(=O)N(C5CCC(=O)NC5=O)C7=O)CC4)C3)nn2)CC1 (stereo partly shown) [Compound 108] | 19% | – | –
39 | CCn1c2c(c3ccc(OCCCN4CC=C(c5ccc(C(=O)N[C@H]6CC[C@H](N(C)c7ccc(C#N)c(Cl)c7)CC6)nn5)CC4)cc31)C(=O)N(C1CCC(=O)NC1=O)C2=O (stereo partly shown) [Compound 201] | – | 10 to 25 nM | –
